In ChEMBL document CHEMBL1148161, “Jaspisamides A-C, new cytotoxic macrolides from the Okinawan sponge Jaspis sp” (J Nat Prod, 1993) one finds IC50 data, which are given here for three compounds.

≈ marks a conversion by molar mass, not a printed value.

Assay [1] has as its system L1210. Kind of assay: Cytotoxicity against mouse L1210 cells. Type of assay: functional, cell-based.
For assay [2], the system named is KB. As to the kind of experiment: Cytotoxicity against human KB cells. Type of assay: functional, cell-based.

Take `COC(CC1OC(=O)CC(O)C/C=C/C(=O)C(C)C(OC)c2coc(n2)-c2coc(n2)-c2coc(n2)/C=C/CCC1C)C(C)CCC(=O)C(C)C(OC)C(C)/C=C/N(C)C=O` (stereo unspecified) [JASPISAMIDE C]: the concentration for half-maximal inhibition (IC50) was less than 1 ng/mL in assay [1] and 13 ng/mL (≈ 15.3 nM) in assay [2].
Turning to `COC(CC1OC(=O)CC(O)CC(O)CC(=O)C(C)C(OC)c2coc(n2)-c2coc(n2)-c2coc(n2)/C=C/CCC1C)C(C)CCC(=O)C(C)C(C/C=C/N(C)C=O)OC` (stereo unspecified) [JASPISAMIDE A], the figures for the IC50 in assay [1] and in assay [2] were less than 1 ng/mL and 15 ng/mL (≈ 17.5 nM), respectively.
In the same order, the values of `COC(CC1OC(=O)CC(O)C/C=C/C(=O)C(C)C(OC)c2coc(n2)-c2coc(n2)-c2coc(n2)/C=C/CC(O)C1C)C(C)CCC(=O)C(C)C(C/C=C/N(C)C=O)OC` (stereo unspecified) [JASPISAMIDE B] are less than 1 ng/mL and 6 ng/mL (≈ 7.03 nM).

As a reminder, the IC50 is the midpoint of a concentration-inhibition curve.
